Data as given in patent US8680290B2, “Isoxazoline derivatives and their use as herbicides” (Syngenta Limited, priority 2004, dated 2014).

Legend:
[1] = test system: Monocotyledonous and dicotyledonous test plants; test: Example B1 herbicidal action, application post-emergence (Table B1a); type: in vivo; details: 250 g/ha, evaluated after 3 weeks, scale 0-10
Outline: (§1)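 Compounds sprayed as aqueous solution from acetone/Emulsogen EL/NMP/dipropylene glycol monomethyl ether/X-77 formulation onto soil right after sowing (pre-emergence) or onto 8–9-day plants (post-emergence); greenhouse-grown. Damage scored 0 (none) to 10 (total) after 4 weeks pre- or 3 weeks post-emergence.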

[2] = test system: Monocotyledonous and dicotyledonous test plants; test: Example B1 herbicidal action, application pre-emergence (Table B1b); type: in vivo; details: 250 g/ha, evaluated after 4 weeks
Outline: as §1

Compound | herbicidal damage rating, Abutilon [1] | herbicidal damage rating, Amaranthus [1] | herbicidal damage rating, Digitaria [1] | herbicidal damage rating, Panicum [1] | herbicidal damage rating, Setaria [1] | herbicidal damage rating, Sida [1] | herbicidal action (damage rating 0-10), Amaranthus [2] | herbicidal action (damage rating 0-10), Digitaria [2] | herbicidal action (damage rating 0-10), Panicum [2] | herbicidal action (damage rating 0-10), Setaria [2] | herbicidal action (damage rating 0-10), Sida [2]
CCOC(=O)c1ccc(C(F)(F)S(=O)(=O)C2=NOC(C)(C)C2)c(F)c1 [1.120] | 7 | 0 | 8 | 3 | 4 | 0 | 8 | 6 | 8 | 0 | 5
CC1(C)CC(S(=O)(=O)C(F)(Cl)c2cc(F)cc(F)c2)=NO1 (stereo not shown) [1.125] | 0 | 0 | 8 | 7 | 5 | 3 | 10 | 10 | 10 | 10 | 7
CC1(C)CC(S(=O)(=O)C(F)(Cl)c2cc(F)ccc2F)=NO1 (stereo not shown) [1.126] | 3 | 0 | 8 | 5 | 5 | 5 | 10 | 10 | 10 | 10 | 8
CC1(C)CC(S(=O)(=O)C(Br)c2cccc(F)c2F)=NO1 (stereo not shown) [1.132] | 3 | 3 | 8 | 8 | 5 | 0 | 10 | 10 | 10 | 10 | 4
CC1(C)CC(S(=O)(=O)C(F)(Cl)c2ccc(F)cc2F)=NO1 (stereo not shown) [1.133] | 0 | 5 | 8 | 7 | 5 | 4 | 10 | 10 | 10 | 10 | 6
CC1(C)CC(S(=O)(=O)C(Cl)c2ccccc2OC(F)(F)F)=NO1 (stereo not shown) [1.143] | 3 | 7 | 7 | 7 | 6 | 2 | 7 | 10 | 10 | 10 | 7
CC1(C)CC(S(=O)(=O)C(F)(Cl)c2ccccc2OC(F)(F)F)=NO1 (stereo not shown) [1.144] | 3 | 3 | 8 | 7 | 7 | 5 | 10 | 10 | 10 | 10 | 8
Cc1ccc(F)c(C(F)(Cl)S(=O)(=O)C2=NOC(C)(C)C2)c1F (stereo not shown) [1.146] | 5 | 3 | 8 | 5 | 6 | 2 | 8 | 10 | 10 | 10 | 5
CC1(C)CC(S(=O)(=O)C(Cl)c2cc(F)cc3c2OCOC3)=NO1 (stereo not shown) [1.147] | 2 | 3 | 7 | 8 | 0 | 0 | 5 | 10 | 10 | 9 | 0
CC1(C)CC(S(=O)(=O)C(F)(Cl)c2cccc(F)c2F)=NO1 (stereo not shown) [1.148] | 0 | 7 | 8 | 8 | 8 | 2 | 10 | 10 | 10 | 10 | 6
Cn1nc(C(F)(F)F)c(C(F)(F)S(=O)(=O)C2=NOC(C)(C)C2)c1OCC(F)(F)F [2.01] | 8 | 5 | 7 | 5 | 5 | 6 | 10 | 10 | 10 | 10 | 9
Cn1nc(C(F)(F)F)c(C(F)(F)S(=O)(=O)C2=NOC(C)(C)C2)c1Cl [2.03] | 7 | 0 | 7 | 7 | 7 | 6 | 10 | 10 | 10 | 10 | 8
Cn1nc(C(F)(F)F)c(C(Cl)S(=O)(=O)C2=NOC(C)(C)C2)c1Cl (stereo not shown) [2.05] | 4 | 0 | 3 | 7 | 0 | 3 | 5 | 9 | 10 | 10 | 8
Cn1nc(C(F)(F)F)c(C(Br)(Br)S(=O)(=O)C2=NOC(C)(C)C2)c1OCC(F)(F)F [2.09] | 7 | 7 | 8 | 8 | 7 | 2 | 10 | 10 | 10 | 10 | 8
